The source made the active and inactive calls. The calls are words filed in the database; no cut-off is given here.
What was measured:
[1] = Antiproliferative activity against human Hs 371.T cells after 48 hrs by MTT assay; assay type: cell-based
MCF7 [2] = assay: Antiproliferative activity against human MCF7 cells after 48 hrs by MTT assay; assay type: functional, cell-based; details: MCF7, 48 h
MCF7 [3] = assay: Potency index, ratio of ratio of compound effect to podophyllotoxin efect for cell cycle arrest in human MCF7 cells assessed as increase in cell percentage at G0 phase at IC50 after 24 hrs by propidium iodide staining-based flow cytometric analysis; assay type: functional
MCF7 [4] = assay: Cell cycle arrest in human MCF7 cells assessed as decrease in accumulation at G1 phase at IC50 after 24 hrs by propidium iodide staining-based flow cytometric analysis; assay type: functional
DNA topoisomerase 2-beta [5] = target: T1, DNA topoisomerase 2-beta (Homo sapiens, UniProt Q02880); assay: Inhibition of human DNA topoisomerase 2beta after 2 hrs by ELISA
MCF7 [6] = assay: Upregulation of caspase3/7 level in human MCF7 cells at IC50 assessed as caspase 3/7 green fluorescence incubated for 24 hrs by green flow cytometric analysis (reference value: 0.49%); assay type: functional
MCF7 [7] = assay: Upregulation of p53 level in human MCF7 cells at IC50 incubated for 24 hrs by ELISA relative to podophyllotoxin; assay type: functional
MCF7 [8] = assay: Potency index, ratio of podophyllotoxin IC50 to compound IC50 for human MCF7 cells; assay type: functional
MCF7 [9] = assay: Inhibition of tubulin beta polymerization in human MCF7 cells at IC50 after 18 to 24 hrs by spectrophotometric method relative to control; assay type: cell-based
MCF7 [10] = assay: Induction of apoptosis in human MCF7 cells assessed as early apoptotic cells at IC50 after 24 hrs by annexin V/FITC-propidium iodide staining-based flow cytometric method (reference value: 0.72%); assay type: functional
MCF7 [11] = assay: Potency index, ratio of ratio of compound effect to podophyllotoxin efect for induction of apoptosis in human MCF7 cells; assay type: functional
MCF7 [12] = assay: Induction of apoptosis in human MCF7 cells assessed as late apoptotic cells at IC50 after 24 hrs by annexin V/FITC-propidium iodide staining-based flow cytometric method (reference value: 0.34%); assay type: functional
MCF7 [13] = assay: Upregulation of caspase3/7 level in human MCF7 cells at IC50 incubated for 24 hrs by green flow cytometric analysis relative to control; assay type: functional
DNA topoisomerase 2-beta [14] = target: T1, DNA topoisomerase 2-beta; assay: Potency index, ratio of etopside IC50 to compound IC50 for topoisomerase 2beta in human MCF7 cells; assay type: cell-based
MCF7 [15] = assay: Down regulation of Bcl-2 level in human MCF7 cells at IC50 incubated for 24 hrs by ELISA; assay type: functional, cell-based
MCF7 [16] = assay: Upregulation of p53 level in human MCF7 cells at IC50 incubated for 24 hrs by ELISA relative to control; assay type: functional
MCF7 [17] = assay: Cell cycle arrest in human MCF7 cells assessed as accumulation at G2 phase at IC50 after 24 hrs by propidium iodide staining-based flow cytometric analysis; assay type: functional
MCF7 [18] = assay: Induction of apoptosis in human MCF7 cells assessed as viable cells at IC50 after 24 hrs by annexin V/FITC-propidium iodide staining-based flow cytometric method (reference value: 96.57%); assay type: functional
MCF7 [19] = assay: Increase in Bax/Bcl-2 ratio in human MCF7 cells at IC50 incubated for 24 hrs by ELISA; assay type: functional, cell-based
MCF7 [20] = assay: Induction of apoptosis in human MCF7 cells assessed as necrotic cells at IC50 after 24 hrs by annexin V/FITC-propidium iodide staining-based flow cytometric method (reference value: 0.53%); assay type: functional
MCF7 [21] = assay: Cell cycle arrest in human MCF7 cells assessed as increase in accumulation at G0 phase at IC50 after 24 hrs by propidium iodide staining-based flow cytometric analysis; assay type: functional
MCF7 [22] = assay: Upregulation of Bax level in human MCF7 cells at IC50 incubated for 24 hrs by ELISA relative to control; assay type: functional

T1 sequence (Q02880 whole entry): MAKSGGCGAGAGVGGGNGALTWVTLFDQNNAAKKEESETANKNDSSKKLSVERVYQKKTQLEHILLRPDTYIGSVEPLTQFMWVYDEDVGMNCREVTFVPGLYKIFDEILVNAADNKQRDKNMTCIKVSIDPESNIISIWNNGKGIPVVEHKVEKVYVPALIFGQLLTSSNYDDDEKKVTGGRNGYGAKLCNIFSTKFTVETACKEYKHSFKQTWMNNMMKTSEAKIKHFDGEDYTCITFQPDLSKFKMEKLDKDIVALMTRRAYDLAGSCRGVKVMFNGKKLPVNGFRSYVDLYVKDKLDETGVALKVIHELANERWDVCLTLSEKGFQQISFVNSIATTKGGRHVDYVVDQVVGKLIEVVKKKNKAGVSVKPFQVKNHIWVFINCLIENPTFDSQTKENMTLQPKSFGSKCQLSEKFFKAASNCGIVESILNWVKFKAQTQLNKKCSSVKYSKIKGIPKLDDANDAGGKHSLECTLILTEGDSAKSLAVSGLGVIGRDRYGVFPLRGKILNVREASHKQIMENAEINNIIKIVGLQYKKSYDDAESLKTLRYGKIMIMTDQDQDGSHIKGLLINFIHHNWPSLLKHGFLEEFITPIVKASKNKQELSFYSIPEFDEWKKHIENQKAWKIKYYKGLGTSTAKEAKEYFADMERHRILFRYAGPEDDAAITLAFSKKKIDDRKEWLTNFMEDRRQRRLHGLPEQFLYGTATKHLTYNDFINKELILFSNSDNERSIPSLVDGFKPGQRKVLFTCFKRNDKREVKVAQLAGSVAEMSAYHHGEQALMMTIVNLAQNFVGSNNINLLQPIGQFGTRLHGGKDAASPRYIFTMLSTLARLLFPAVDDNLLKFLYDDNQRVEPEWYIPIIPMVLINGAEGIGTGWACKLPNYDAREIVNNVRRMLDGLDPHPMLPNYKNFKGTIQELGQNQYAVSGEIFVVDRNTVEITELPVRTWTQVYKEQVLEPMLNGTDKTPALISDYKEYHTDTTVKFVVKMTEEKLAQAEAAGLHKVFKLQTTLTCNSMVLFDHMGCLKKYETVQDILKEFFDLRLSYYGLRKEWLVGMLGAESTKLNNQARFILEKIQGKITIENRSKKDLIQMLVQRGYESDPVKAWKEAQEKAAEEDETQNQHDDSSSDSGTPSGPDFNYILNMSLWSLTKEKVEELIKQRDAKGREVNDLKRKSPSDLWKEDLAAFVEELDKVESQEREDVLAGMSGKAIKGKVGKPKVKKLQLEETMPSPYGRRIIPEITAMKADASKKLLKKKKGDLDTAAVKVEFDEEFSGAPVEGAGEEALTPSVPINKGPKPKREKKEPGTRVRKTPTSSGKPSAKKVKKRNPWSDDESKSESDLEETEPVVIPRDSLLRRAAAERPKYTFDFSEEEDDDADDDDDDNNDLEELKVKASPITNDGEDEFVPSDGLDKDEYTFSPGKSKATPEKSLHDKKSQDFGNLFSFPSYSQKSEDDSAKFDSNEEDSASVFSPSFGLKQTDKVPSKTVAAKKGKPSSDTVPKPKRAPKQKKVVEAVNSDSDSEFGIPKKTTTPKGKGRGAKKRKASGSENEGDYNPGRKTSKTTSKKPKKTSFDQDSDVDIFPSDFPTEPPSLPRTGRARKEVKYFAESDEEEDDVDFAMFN

SMILES | IC50 [1] [µM] | IC50 (MCF7 [2]) [µM] | Activity (MCF7 [6]) [%] | inhibition (MCF7 [9]) [%] | Activity (MCF7 [10]) [%] | Activity (MCF7 [12]) [%] | Activity (MCF7 [20]) [%] | other results
CC(=O)Oc1c(Br)cc(Br)cc1/C=C1\N=C(c2ccccc2)N(C(N)=S)NC1=O | 80.1 | 28.5 |  |  |  |  |  | 
COc1ccc(C2=N/C(=C\c3cc(Br)cc(Br)c3OC(C)=O)C(=O)NN2c2ccccc2)cc1OC |  | 5.39 |  |  |  |  |  | 
COc1cc(C2=N/C(=C\c3cc(Br)cc(Br)c3OC(C)=O)C(=O)NN2c2ccccc2)cc(OC)c1OC | 44.3 | 0.35 | 11.28 | 33.4 | 5.47 | 7.85 | 3.14 | Ratio (MCF7 [3]): 1.4; Activity (MCF7 [4]): Active; IC50 (DNA topoisomerase 2-beta [5]): 12.6 nM; fold change (FC) (MCF7 [7]): 2.1; Ratio IC50 (MCF7 [8]): 6; Ratio (MCF7 [11]): 1.5; fold change (FC) (MCF7 [13]): 18; Ratio IC50 (DNA topoisomerase 2-beta [14]): 5.3; Activity (MCF7 [15]): Active; fold change (FC) (MCF7 [16]): 1.9; Activity (MCF7 [17]): Active; Activity (MCF7 [18]): 81.41%; Activity (MCF7 [19]): Active; Activity (MCF7 [21]): Active; fold change (FC) (MCF7 [22]): 3.9
COc1ccc(C(=O)N/C(=C/c2cc(Br)cc(Br)c2OC(C)=O)C(=O)NNC(N)=S)cc1OC |  | 8.97 |  |  |  |  |  | 
COc1ccc(C2=N/C(=C\c3cc(Br)cc(Br)c3OC(C)=O)C(=O)NN2c2ncc(-c3ccc(Br)cc3)s2)cc1OC |  | 3.28 |  |  |  |  |  | 
COc1cc(C2=N/C(=C\c3cc(Br)cc(Br)c3OC(C)=O)C(=O)NN2C(N)=S)cc(OC)c1OC | 61.3 | 0.36 | 8.69 | 44.4 | 4.78 | 10.88 | 3.66 | Activity (MCF7 [4]): Active; IC50 (DNA topoisomerase 2-beta [5]): 31.7 nM; fold change (FC) (MCF7 [7]): 1.7; Ratio IC50 (MCF7 [8]): 6; Ratio (MCF7 [11]): 1.25; fold change (FC) (MCF7 [13]): 21.6; Ratio IC50 (DNA topoisomerase 2-beta [14]): 2.2; Activity (MCF7 [15]): Active; fold change (FC) (MCF7 [16]): 8.1; Activity (MCF7 [17]): Active; Activity (MCF7 [18]): 78.79%; Activity (MCF7 [19]): Active; Activity (MCF7 [21]): Active; fold change (FC) (MCF7 [22]): 3.2
COc1cc(C(=O)N/C(=C/c2cc(Br)cc(Br)c2OC(C)=O)C(=O)NNC(N)=S)cc(OC)c1OC |  | 2.85 | 6.91 | 62.3 | 4.66 | 5.62 | 2.11 | IC50 (DNA topoisomerase 2-beta [5]): 81.4 nM; fold change (FC) (MCF7 [13]): 24.1; Activity (MCF7 [15]): Active; fold change (FC) (MCF7 [16]): 4.2; Activity (MCF7 [19]): Active; fold change (FC) (MCF7 [22]): 2.2
COc1cc(C2=N/C(=C\c3cc(Br)cc(Br)c3OC(C)=O)C(=O)n3c(C)nc(=S)n32)cc(OC)c1OC | 58.7 | 3.07 | 7.58 | 88.2 | 3.38 | 4.53 | 1.73 | IC50 (DNA topoisomerase 2-beta [5]): 110 nM; fold change (FC) (MCF7 [13]): 31.3; Activity (MCF7 [15]): Active; fold change (FC) (MCF7 [16]): 5.1; Activity (MCF7 [18]): 88.4%; fold change (FC) (MCF7 [22]): 0.9
CC(=O)Oc1c(Br)cc(Br)cc1/C=C(/NC(=O)c1ccccc1)C(=O)NNC(N)=S |  | 16.8 |  |  |  |  |  | 
CC(=O)Oc1c(Br)cc(Br)cc1/C=C1\N=C(c2ccccc2)n2c(=S)nc(C)n2C1=O |  | > 100 |  |  |  |  |  | 
COc1ccc(C2=N/C(=C\c3cc(Br)cc(Br)c3OC(C)=O)C(=O)NN2C(N)=S)cc1OC |  | 13.4 |  |  |  |  |  | 
COc1cc(C2=N/C(=C\c3cc(Br)cc(Br)c3OC(C)=O)C(=O)NN2c2ncc(-c3ccc(Br)cc3)s2)cc(OC)c1OC |  | 3.16 |  |  |  |  |  | 
COc1ccc(C2=N/C(=C\c3cc(Br)cc(Br)c3OC(C)=O)C(=O)n3c(C)nc(=S)n32)cc1OC |  | 6.84 |  |  |  |  |  | 
COc1cc([C@@H]2c3cc4c(cc3[C@H](O)[C@H]3COC(=O)[C@H]23)OCO4)cc(OC)c1OC [PODOFILOX] | 22.4 | 2.21 | 7.58 | 96.3 | 4.19 | 7.02 | 2.06 | Activity (MCF7 [18]): 84.61%
COc1cc(C2=N/C(=C\c3cc(Br)cc(Br)c3OC(C)=O)C(=O)NN2c2ncc(-c3ccccc3)s2)cc(OC)c1OC | 77.4 | 0.41 | 7.79 | 55.2 | 3.64 | 6.33 | 3.31 | Activity (MCF7 [4]): Active; IC50 (DNA topoisomerase 2-beta [5]): 6.85 nM; fold change (FC) (MCF7 [7]): 1.75; Ratio IC50 (MCF7 [8]): 6; fold change (FC) (MCF7 [13]): 15.6; Ratio IC50 (DNA topoisomerase 2-beta [14]): 10.2; Activity (MCF7 [15]): Active; fold change (FC) (MCF7 [16]): 9.2; Activity (MCF7 [17]): Active; Activity (MCF7 [18]): 84.46%; Activity (MCF7 [19]): Active; Activity (MCF7 [21]): Active; fold change (FC) (MCF7 [22]): 3.4
COc1ccc(C2=N/C(=C\c3cc(Br)cc(Br)c3OC(C)=O)C(=O)NN2c2ncc(-c3ccccc3)s2)cc1OC |  | 4.33 |  |  |  |  |  | 
CC(=O)Oc1c(Br)cc(Br)cc1/C=C1\N=C(c2ccccc2)N(c2ccccc2)NC1=O |  | 19.4 |  |  |  |  |  | 
CC(=O)Oc1c(Br)cc(Br)cc1/C=C1\N=C(c2ccccc2)N(c2ncc(-c3ccc(Br)cc3)s2)NC1=O |  | 9.49 |  |  |  |  |  | 
CC(=O)Oc1c(Br)cc(Br)cc1/C=C1\N=C(c2ccccc2)N(c2ncc(-c3ccccc3)s2)NC1=O |  | 38.3 |  |  |  |  |  | 

From ChEMBL document CHEMBL4152338, “Design, synthesis and screening of 1, 2, 4-triazinone derivatives as potential antitumor agents with apoptosis inducing activity on MCF-7 breast cancer cell line” (Eur J Med Chem, 2018)
